Data taken from patent publication US20040220270A1, “Methods and composition of treating glaucoma by modulating tyrosinase/L-DOPA pathway” (The Jackson Laboratory, priority 2003, published 2004).
Entries after “also recorded” stand apart in the source; their conditions may differ.

System: Cyp1b1^−/− Tyr^c−2J/c−2J (albino) double mutants
Test: L-DOPA supplementation via drinking water throughout ocular development; histologic and electron microscopic grading of angle dysgenesis
Type: in vivo, mice
Details: for developmental abnormalities in the iridocorneal angle / severe angle dysgenesis (histology): L-DOPA 1 mg/ml in drinking water from gestation until harvest at approximately 4 weeks
Excerpt: Applicant hypothesized that tyrosinase might affect angle development through modulation of L-DOPA levels. Tyrosinase is a monooxygenase that converts tyrosine to L-DOPA and L-DOPA to dopaquinone. L-DOPA affects development and is the precursor of catecholamines, which are important developmental regulators (15-17). To investigate whether L-DOPA is a critical molecule in angle development, Applicant administered water containing L-DOPA or standard drinking water to Cyp1b1^-/- Tyr^c-2J/c-2J (albino) double mutants throughout ocular development [their mothers received this water throughout the period of in utero development (12)]. […] Despite the profound rescue in L-DOPA treated albino Cyp1b1^-/- mice, mild abnormalities of similar severity to those observed in pigmented Cyp1b1^-/- mice remained. […] These include genes that affect L-DOPA levels, affect the metabolism of L-DOPA to other developmentally important molecules or affect the signaling of these molecules in developmental/physiologic pathways. L-DOPA treatment-L-DOPA (dihydroxyphenylalanine, 15,431-8, Aldrich Chemical Company, Inc., Milwaukee, Wis.) was supplied to the animals via their drinking water at a concentration of 1 mg/ml (5, 6). L-DOPA was dissolved into acidic water (pH of 3) to avoid oxidation. Animals were either on L-DOPA for their entire gestation or started on L-DOPA at embryonic day E5.5 (prior to eye formation). Eyes were harvested at approximately 4 weeks of age and L-DOPA treatment was continued until the time of harvest. Freshly made L-DOPA water was supplied every three days. Histologic and electron microscopic analyses-Applicant fixed and processed eyes for plastic sectioning and electron microscopy as previously reported (1, 9). All tissues were harvested from mice at ages after angle formation. For light microscopy, eyes were […] sectioned and up to 56 sections were collected from each of 3 different ocular regions for all eyes. […] Collected regions included nasal lens periphery, central lens, and a region halfway between the lens center and the peripheral lens. Sections were stained with hematoxylin and eosin. Due to the potential for artifact in the delicate tissues analyzed abnormalities had to be present in multiple sections from the same region. Nine to twelve eyes were analyzed for each genotype on each genetic background. Applicant devised a grading scheme to allow comparison between different eyes. Applicant separately assessed the severity of defects affecting Schlemm's canal (SC), trabecular meshwork (TM) and creating synechiae. For each phenotype, Applicant graded 6 similarly spaced sections for each ocular region. Applicant graded the severity of abnormalities in both angles of a section. Thus, Applicant graded 36 angles (6 sections×2 angles×3 regions) from different ocular regions for each eye. Applicant designated a grade of 0, 1, 2, 3, or 4 (increasing in severity from 0 to 4, see below) to each phenotype for each angle. For an eye, the total grade could be any value between 0 and 144 (36 angles×4). […] To assess the difference in the severity of angle dysgenesis between the albino and pigmented eyes, Applicant graded approximately 10 eyes from mice of each Cyp1b1 and Foxc1 genotype. Due to the continuous nature of the grade, Applicant present the data as mean± SEM and compared genotypes using two tailed student t-tests. Applicant checked the consistency of the grading method by assessing 8 random eyes on a second occasion without knowledge of the initial grade. […]

## N[C@@H](Cc1ccc(O)c(O)c1)C(=O)O [L-DOPA, 3,4-dihydroxyphenylalanine]
Cyp1b1^−/− Tyr^c−2J/c−2J mice, B6 background, versus untreated
  developmental abnormalities in the iridocorneal angle / severe angle dysgenesis (histology): alleviated; also recorded: prevent the severe angle dysgenesis
Cyp1b1^−/− Tyr^c−2J/c−2J mice, B6 background, versus untreated, listed as LDOPA
  developmental abnormalities in the iridocorneal angle / severe angle dysgenesis (histology): substantially prevented developmental abnormalities
Cyp1b1^−/− Tyr^c−2J/c−2J mice, B6 background, L-DOPA 1 mg/ml in drinking water, versus untreated
  ultrastructure of the trabecular meshwork (electron micrographs): rescues the ultrastructure of the trabecular meshwork
Cyp1b1^−/− Tyr^c−2J/c−2J mice, L-DOPA 1 mg/ml in drinking water, grade 0-144 per eye, p<0.001 for all assessed phenotypes versus untreated
  mean severity grades of developmental dysgenesis (Schlemm's canal, trabecular meshwork, synechiae): can be alleviated
L-DOPA treated albino Cyp1b1^−/− mice, compared with pigmented Cyp1b1^−/− mice
  abnormalities remaining after L-DOPA treatment: mild abnormalities of similar severity to those observed in pigmented Cyp1b1^−/− mice remained
